According to ChEMBL document CHEMBL5303573, “Mapping human microbiome drug metabolism by gut bacteria and their genes” (Nature, 2019):

Key:
[1] = The drug is tested on Clostridium sp. strain: fecal isolate for biotransformation. The drug concentrations were measured before and after a 12-h incubation by liquid-chromatography-coupled mass spectrometry (LC–MS); settings: 2 µM
[2] = segatella copri, 12 h, 2 µM
Description: The drug is tested on Prevotella copri strain: DSM18205 for biotransformation. The drug concentrations were measured before and after a 12-h incubation by liquid-chromatography-coupled mass spectrometry (LC–MS)

[3] = The drug is tested on Enterococcus faecalis strain: V583 for biotransformation. The drug concentrations were measured before and after a 12-h incubation by liquid-chromatography-coupled mass spectrometry (LC–MS); settings: 2 µM
[4] = The drug is tested on Bacteroides vulgatus strain: ATCC8482 for biotransformation. The drug concentrations were measured before and after a 12-h incubation by liquid-chromatography-coupled mass spectrometry (LC–MS); settings: phocaeicola vulgatus, 2 µM
[5] = bacteroides thetaiotaomicron, 12 h, 2 µM
Description: The drug is tested on Bacteroides thetaiotaomicron strain: 3731 for biotransformation. The drug concentrations were measured before and after a 12-h incubation by liquid-chromatography-coupled mass spectrometry (LC–MS)

[6] = victivallis vadensis, 12 h, 2 µM
Description: The drug is tested on Victivallis vadensis strain: ATCC BAA-548 for biotransformation. The drug concentrations were measured before and after a 12-h incubation by liquid-chromatography-coupled mass spectrometry (LC–MS)

[7] = The drug is tested on Salmonella typhimurium strain: LT2 for biotransformation. The drug concentrations were measured before and after a 12-h incubation by liquid-chromatography-coupled mass spectrometry (LC–MS); settings: salmonella enterica subsp. enterica, 2 µM
[8] = The drug is tested on Clostridium hathewayi strain: DSM13479 for biotransformation. The drug concentrations were measured before and after a 12-h incubation by liquid-chromatography-coupled mass spectrometry (LC–MS); settings: hungatella hathewayi, 2 µM
[9] = The drug is tested on Clostridium spiroforme strain: DSM1552 for biotransformation. The drug concentrations were measured before and after a 12-h incubation by liquid-chromatography-coupled mass spectrometry (LC–MS); settings: thomasclavelia spiroformis, 2 µM

Row | SMILES | Bacterial Biotransformation [1] | Bacterial Biotransformation [2] | Bacterial Biotransformation [3] | Bacterial Biotransformation [4] | Bacterial Biotransformation [5] | Bacterial Biotransformation [6] | Bacterial Biotransformation [7] | Bacterial Biotransformation [8] | Bacterial Biotransformation [9]
1 | CC(C)(C)NCC(O)COc1cccc2c1CC(O)C(O)C2 (configuration not stated) [NADOLOL] | Compound NOT metabolized | Compound NOT metabolized | Compound NOT metabolized | Compound NOT metabolized | – | – | – | – | –
2 | CC(C)(C)NC[C@H](O)COc1ccccc1C1CCCC1.CC(C)(C)NC[C@H](O)COc1ccccc1C1CCCC1.O=S(=O)(O)O [PENBUTOLOL SULFATE] | Compound metabolized | – | Compound NOT metabolized | Compound metabolized | Compound NOT metabolized | Compound NOT metabolized | Compound NOT metabolized | – | –
3 | CCc1nc(N)nc(N)c1-c1ccc(Cl)cc1 [PYRIMETHAMINE] | Compound NOT metabolized | Compound NOT metabolized | Compound NOT metabolized | Compound NOT metabolized | Compound NOT metabolized | – | – | – | –
4 | C=C[C@H]1CN2CC[C@H]1C[C@H]2[C@H](O)c1ccnc2ccc(OC)cc12.C=C[C@H]1CN2CC[C@H]1C[C@H]2[C@H](O)c1ccnc2ccc(OC)cc12.O.O.O=S(=O)(O)O [QUININE SULFATE] | – | Compound NOT metabolized | Compound NOT metabolized | – | – | – | – | Compound NOT metabolized | Compound NOT metabolized
5 | COC(=O)[C@H]1[C@H]2C[C@@H]3c4[nH]c5cc(OC)ccc5c4CCN3C[C@H]2C[C@@H](OC(=O)c2cc(OC)c(OC)c(OC)c2)[C@@H]1OC [RESERPINE] | Compound NOT metabolized | Compound NOT metabolized | Compound NOT metabolized | Compound NOT metabolized | Compound NOT metabolized | Compound NOT metabolized | – | – | –
6 | Cc1ccc(/C(=C\CN2CCCC2)c2ccccn2)cc1 [TRIPROLIDINE] | Compound NOT metabolized | Compound NOT metabolized | Compound NOT metabolized | Compound NOT metabolized | Compound NOT metabolized | – | – | – | –
7 | O=C(O[C@H]1C[C@H]2CC[C@@H](C1)[N+]21CCCC1)C(O)(c1ccccc1)c1ccccc1.[Cl-] [TROSPIUM CHLORIDE] | – | Compound NOT metabolized | Compound NOT metabolized | – | Compound NOT metabolized | Compound NOT metabolized | – | – | –

Now from value to compound, other results behind:

Row | Bacterial Biotransformation [1] | Bacterial Biotransformation [2] | Bacterial Biotransformation [3] | Bacterial Biotransformation [4] | Bacterial Biotransformation [5] | Bacterial Biotransformation [6] | SMILES | Bacterial Biotransformation [7] | Bacterial Biotransformation [8] | Bacterial Biotransformation [9]
8 | – | Compound NOT metabolized | Compound NOT metabolized | – | Compound NOT metabolized | Compound NOT metabolized | CC(=O)O[C@H]1C(=O)[C@@]2(C)[C@H]([C@H](OC(=O)c3ccccc3)[C@]3(O)C[C@H](OC(=O)[C@H](O)[C@@H](NC(=O)c4ccccc4)c4ccccc4)C(C)=C1C3(C)C)[C@]1(OC(C)=O)CO[C@@H]1C[C@@H]2O [PACLITAXEL] | – | – | –
9 | Compound NOT metabolized | Compound metabolized | Compound NOT metabolized | Compound metabolized | Compound metabolized | – | CCC(=O)NCC[C@@H]1CCc2ccc3c(c21)CCO3 [RAMELTEON] | – | – | –
10 | Compound NOT metabolized | Compound NOT metabolized | Compound NOT metabolized | – | Compound NOT metabolized | Compound NOT metabolized | O=C(NC(Cc1cc(=O)[nH]c2ccccc12)C(=O)O)c1ccc(Cl)cc1 (configuration not stated) [REBAMIPIDE] | – | – | –
11 | Compound NOT metabolized | – | Compound NOT metabolized | Compound NOT metabolized | Compound NOT metabolized | – | CCN(CC)CCNC(=O)c1cc(S(C)(=O)=O)ccc1OC [TIAPRIDE] | – | – | –
